Laboratory results from the supplement of paper PMC9262897, “Low-cost anti-mycobacterial drug discovery using engineered E. coli” (Nature Communications, 2022).

Tested on: E. coli TESEC Mtb Alr
Experiment: growth (OD600 after 10 h, mean); higher = more growth
Method: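 TESEC Mtb Alr E. coli grown in a two-dimensional dilution series of drug (µM) and arabinose (12 to 1e8 nM). Growth is read as OD600 after 10 h; values are means of 3 biological replicates.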
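Note: E. coli lacking its native Alr, complemented by codon-optimized Mtb Alr under a feedback-controlled arabinose-inducible plasmid circuit, grown in defined medium.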

CCOC(=O)[C@H](CCc1ccccc1)N[C@H]1CCc2ccccc2N(CC(=O)O)C1=O [Benazepril]
growth
Settings | drug 15.62 µM | drug 31.25 µM | drug 62.5 µM
arabinose 12 nM | 0.354 | 0.343 | 0.321
arabinose 24 nM | 0.338 | 0.339 | 0.326
arabinose 48 nM | 0.334 | 0.332 | 0.33
arabinose 95 nM | 0.343 | 0.334 | 0.309
arabinose 191 nM | 0.341 | 0.34 | 0.308
arabinose 381 nM | 0.338 | 0.325 | 0.309
arabinose 763 nM | 0.337 | 0.322 | 0.304
arabinose 1526 nM | 0.333 | 0.322 | 0.305
arabinose 3052 nM | 0.338 | 0.326 | 0.308
arabinose 6104 nM | 0.337 | 0.334 | 0.303
arabinose 12207 nM | 0.353 | 0.332 | 0.312
arabinose 24414 nM | 0.352 | 0.348 | 0.309
arabinose 48828 nM | 0.367 | 0.393 | 0.396
arabinose 97656 nM | 0.451 | 0.462 | 0.394
arabinose 195312 nM | 0.429 | 0.42 | 0.387
arabinose 390625 nM | 0.344 | 0.35 | 0.346
arabinose 781250 nM | 0.311 | 0.307 | 0.306
arabinose 1562500 nM | 0.295 | 0.287 | 0.286
arabinose 3125000 nM | 0.274 | 0.267 | 0.268
arabinose 6250000 nM | 0.267 | 0.273 | 0.273
arabinose 12500000 nM | 0.263 | 0.266 | 0.256
arabinose 25000000 nM | 0.259 | 0.258 | 0.252
arabinose 50000000 nM | 0.246 | 0.245 | 0.244
arabinose 100000000 nM | 0.239 | 0.231 | –
